Tests used:
Assay in all cases: Chemical proteomics pull-down with immobilized compound, LC-MS/MS identification
Conditions in all cases: maximum in any chemical proteomics experiment
EphA4 = EphA4 (Mus musculus, UniProt Q03137)
EphB4 = target: T1, EphB4 (Mus musculus, UniProt P54761)
T1 sequence (P54761 16-987): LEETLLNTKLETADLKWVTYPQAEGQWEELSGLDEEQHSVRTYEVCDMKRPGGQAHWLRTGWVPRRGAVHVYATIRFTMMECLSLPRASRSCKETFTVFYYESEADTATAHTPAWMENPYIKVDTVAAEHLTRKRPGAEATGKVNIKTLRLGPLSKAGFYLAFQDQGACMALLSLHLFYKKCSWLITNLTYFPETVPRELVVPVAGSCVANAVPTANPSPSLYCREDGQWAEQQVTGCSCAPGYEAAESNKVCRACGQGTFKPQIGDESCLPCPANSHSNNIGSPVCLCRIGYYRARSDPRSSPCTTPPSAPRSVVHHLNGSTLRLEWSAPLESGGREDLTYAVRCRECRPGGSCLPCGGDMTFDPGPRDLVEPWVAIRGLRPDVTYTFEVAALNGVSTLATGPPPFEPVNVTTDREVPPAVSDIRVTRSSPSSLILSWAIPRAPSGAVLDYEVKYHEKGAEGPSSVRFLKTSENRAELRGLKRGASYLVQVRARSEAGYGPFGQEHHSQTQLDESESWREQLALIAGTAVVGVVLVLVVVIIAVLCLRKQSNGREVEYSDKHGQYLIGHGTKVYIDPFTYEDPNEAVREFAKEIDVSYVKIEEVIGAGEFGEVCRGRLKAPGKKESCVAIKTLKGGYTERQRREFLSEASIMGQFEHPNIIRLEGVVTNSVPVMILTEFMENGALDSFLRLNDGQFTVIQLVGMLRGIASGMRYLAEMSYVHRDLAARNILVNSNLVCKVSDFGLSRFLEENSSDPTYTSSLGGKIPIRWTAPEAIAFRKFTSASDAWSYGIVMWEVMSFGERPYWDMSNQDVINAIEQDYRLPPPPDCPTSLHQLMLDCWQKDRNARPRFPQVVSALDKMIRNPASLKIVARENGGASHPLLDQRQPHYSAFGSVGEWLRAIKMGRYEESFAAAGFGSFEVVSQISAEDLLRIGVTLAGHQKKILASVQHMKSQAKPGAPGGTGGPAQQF

EphA5 = EphA5 (Mus musculus, UniProt Q60629)
EphB3 = target: T2, EphB3 (Mus musculus, UniProt P54754)
T2 sequence (P54754 30-993): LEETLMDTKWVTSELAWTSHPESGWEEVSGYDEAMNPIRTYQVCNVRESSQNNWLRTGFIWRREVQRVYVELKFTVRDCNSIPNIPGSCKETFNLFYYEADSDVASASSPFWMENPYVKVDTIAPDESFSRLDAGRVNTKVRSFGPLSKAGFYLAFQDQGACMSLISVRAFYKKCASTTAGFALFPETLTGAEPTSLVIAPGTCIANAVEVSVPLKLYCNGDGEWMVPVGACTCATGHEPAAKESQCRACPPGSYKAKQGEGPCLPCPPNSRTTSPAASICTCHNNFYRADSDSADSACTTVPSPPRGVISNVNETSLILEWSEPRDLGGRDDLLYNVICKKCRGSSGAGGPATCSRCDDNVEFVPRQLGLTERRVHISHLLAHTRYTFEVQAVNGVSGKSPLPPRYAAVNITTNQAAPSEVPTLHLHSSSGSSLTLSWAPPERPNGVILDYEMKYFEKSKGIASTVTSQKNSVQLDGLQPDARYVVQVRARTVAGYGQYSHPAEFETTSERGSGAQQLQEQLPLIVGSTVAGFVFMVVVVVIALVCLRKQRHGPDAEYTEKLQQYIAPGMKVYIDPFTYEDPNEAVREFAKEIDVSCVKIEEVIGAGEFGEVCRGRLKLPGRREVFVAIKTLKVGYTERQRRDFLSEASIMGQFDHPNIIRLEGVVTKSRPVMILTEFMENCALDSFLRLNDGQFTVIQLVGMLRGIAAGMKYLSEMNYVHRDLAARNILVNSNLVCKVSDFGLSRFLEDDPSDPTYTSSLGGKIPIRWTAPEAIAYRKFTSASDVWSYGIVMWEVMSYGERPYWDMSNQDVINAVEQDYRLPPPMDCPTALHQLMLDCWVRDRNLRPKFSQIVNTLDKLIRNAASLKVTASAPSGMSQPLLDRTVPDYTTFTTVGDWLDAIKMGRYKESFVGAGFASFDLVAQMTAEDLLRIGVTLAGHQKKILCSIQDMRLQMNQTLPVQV

Chain of EphA4 (Q03137 20-986): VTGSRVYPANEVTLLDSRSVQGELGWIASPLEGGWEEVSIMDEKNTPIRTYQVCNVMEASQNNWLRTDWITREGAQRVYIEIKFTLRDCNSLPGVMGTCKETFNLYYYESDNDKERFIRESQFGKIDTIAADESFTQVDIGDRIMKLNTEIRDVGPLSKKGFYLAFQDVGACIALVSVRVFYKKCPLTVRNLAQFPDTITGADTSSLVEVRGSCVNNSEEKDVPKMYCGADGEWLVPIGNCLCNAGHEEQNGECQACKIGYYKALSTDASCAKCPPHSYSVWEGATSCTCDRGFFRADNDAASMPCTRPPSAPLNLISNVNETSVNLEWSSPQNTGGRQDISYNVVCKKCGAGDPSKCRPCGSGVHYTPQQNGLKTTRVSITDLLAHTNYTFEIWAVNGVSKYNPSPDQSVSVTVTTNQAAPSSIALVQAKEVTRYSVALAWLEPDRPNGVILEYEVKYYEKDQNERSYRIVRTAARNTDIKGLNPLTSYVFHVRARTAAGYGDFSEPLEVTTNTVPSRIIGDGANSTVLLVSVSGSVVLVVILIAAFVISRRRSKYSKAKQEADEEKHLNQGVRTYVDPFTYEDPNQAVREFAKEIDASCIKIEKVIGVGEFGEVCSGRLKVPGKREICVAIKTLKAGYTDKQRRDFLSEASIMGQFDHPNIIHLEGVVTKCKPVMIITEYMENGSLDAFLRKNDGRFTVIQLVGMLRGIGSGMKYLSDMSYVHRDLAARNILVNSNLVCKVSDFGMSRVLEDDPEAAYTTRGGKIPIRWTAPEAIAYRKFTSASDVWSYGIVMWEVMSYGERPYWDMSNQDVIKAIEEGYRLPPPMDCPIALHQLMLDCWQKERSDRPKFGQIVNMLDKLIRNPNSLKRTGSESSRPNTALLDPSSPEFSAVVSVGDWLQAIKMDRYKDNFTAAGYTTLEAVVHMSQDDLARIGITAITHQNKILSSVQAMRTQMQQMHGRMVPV
Chain of EphA5 (Q60629 27-876): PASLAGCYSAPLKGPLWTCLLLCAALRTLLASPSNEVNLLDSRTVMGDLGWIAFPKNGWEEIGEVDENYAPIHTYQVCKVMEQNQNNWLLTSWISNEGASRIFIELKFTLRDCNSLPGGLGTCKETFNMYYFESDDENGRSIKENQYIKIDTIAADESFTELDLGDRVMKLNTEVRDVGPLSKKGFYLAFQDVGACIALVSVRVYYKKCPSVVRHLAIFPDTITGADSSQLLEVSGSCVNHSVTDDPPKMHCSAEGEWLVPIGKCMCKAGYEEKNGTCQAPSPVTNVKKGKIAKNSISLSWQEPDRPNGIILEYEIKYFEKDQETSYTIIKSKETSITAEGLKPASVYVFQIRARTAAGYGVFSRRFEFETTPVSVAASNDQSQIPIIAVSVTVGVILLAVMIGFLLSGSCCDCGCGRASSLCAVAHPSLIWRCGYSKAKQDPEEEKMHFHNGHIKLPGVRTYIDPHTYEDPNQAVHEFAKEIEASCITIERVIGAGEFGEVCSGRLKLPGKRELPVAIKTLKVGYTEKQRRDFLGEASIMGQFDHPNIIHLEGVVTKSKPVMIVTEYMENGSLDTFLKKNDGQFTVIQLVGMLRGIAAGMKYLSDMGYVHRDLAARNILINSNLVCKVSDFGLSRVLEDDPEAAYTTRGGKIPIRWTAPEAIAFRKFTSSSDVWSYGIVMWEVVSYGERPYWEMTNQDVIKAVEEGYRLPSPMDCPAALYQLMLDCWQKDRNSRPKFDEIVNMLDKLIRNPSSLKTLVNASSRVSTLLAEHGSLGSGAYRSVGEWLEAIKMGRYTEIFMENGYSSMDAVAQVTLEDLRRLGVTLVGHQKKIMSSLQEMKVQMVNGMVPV

| Compound | maximal number of non-redundant peptides identified, EphA4 (EphA4) | maximal number of non-redundant peptides identified, EphB4 (EphB4) | maximal number of non-redundant peptides identified, EphA5 (EphA5) | maximal number of non-redundant peptides identified, EphB3 (EphB3) |
| --- | --- | --- | --- | --- |
| CC(C)[C@H](CO)Nc1nc(Nc2ccc(C(=O)O)c(Cl)c2)c2ncn(C(C)C)c2n1 [Purvalanol B] | 14 | 46 | 5 | 4 |
| CSc1cccc(Nc2ncc3cc(-c4c(Cl)cccc4Cl)c(=O)n(C)c3n2)c1 [PD173955] | 47 | 17 | 4 | 17 |

Source: patent US20080213250A1, “Use of Eph Receptor Inhibitors for the Treatment of Neurodegenerative Diseases” (priority 2004, published 2008)
